Measurements as given in ChEMBL document CHEMBL5331063, “Recent advances of β-catenin small molecule inhibitors for cancer therapy: Current development and future perspectives” (Eur J Med Chem, 2022).

How the values were obtained:
HCT-116 [1] = test: Antitumor activity against human HCT-116 cells xenografted with mouse assessed as reduction in tumor size at 20 mg/kg,ip administrated 3 times per week for 11 days; assay type: functional; design: scale not given: the % may be the effect or the level left; conditions: time 11 day
HCT-116 [2] = test: Antitumor activity against human HCT-116 cells xenografted with mouse assessed as reduction in tumor size at 100 mg/kg,ip administrated 3 times per week for 11 days; assay type: functional; design: scale not given: the % may be the effect or the level left; conditions: time 11 day
[3] = target: T1, Catenin beta-1/Cadherin-1 (Homo sapiens, UniProt P35222); test: Inhibition of His6-tagged human beta-Catenin (138 to 686 residues)/C-terminal fluorescein-labeled human E-cadherin (819 to 873 residues) protein-protein interaction assessed as inhibition constant by AlphaScreen competitive assay
T1 sequence (P35222 whole entry): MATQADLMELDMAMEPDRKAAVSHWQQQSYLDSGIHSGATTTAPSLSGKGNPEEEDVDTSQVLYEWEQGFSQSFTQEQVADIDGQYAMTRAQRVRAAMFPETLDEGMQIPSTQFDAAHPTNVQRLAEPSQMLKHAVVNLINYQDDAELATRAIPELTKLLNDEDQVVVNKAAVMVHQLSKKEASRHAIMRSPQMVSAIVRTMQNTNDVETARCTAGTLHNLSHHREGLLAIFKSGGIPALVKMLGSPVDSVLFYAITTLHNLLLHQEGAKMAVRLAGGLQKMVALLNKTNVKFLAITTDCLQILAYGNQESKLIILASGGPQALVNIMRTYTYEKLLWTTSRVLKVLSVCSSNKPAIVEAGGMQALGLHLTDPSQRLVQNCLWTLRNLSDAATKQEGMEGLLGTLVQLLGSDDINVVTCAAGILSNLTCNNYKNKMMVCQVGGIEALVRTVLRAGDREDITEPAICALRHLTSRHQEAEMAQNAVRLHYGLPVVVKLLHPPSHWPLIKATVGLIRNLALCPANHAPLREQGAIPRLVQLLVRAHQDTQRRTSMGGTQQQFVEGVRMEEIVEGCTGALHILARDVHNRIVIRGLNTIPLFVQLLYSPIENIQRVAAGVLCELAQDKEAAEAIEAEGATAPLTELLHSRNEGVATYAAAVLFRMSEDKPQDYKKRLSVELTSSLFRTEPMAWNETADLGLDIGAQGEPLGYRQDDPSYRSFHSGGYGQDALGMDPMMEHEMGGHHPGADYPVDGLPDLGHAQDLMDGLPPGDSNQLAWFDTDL
T1 sequence (P12830 whole entry): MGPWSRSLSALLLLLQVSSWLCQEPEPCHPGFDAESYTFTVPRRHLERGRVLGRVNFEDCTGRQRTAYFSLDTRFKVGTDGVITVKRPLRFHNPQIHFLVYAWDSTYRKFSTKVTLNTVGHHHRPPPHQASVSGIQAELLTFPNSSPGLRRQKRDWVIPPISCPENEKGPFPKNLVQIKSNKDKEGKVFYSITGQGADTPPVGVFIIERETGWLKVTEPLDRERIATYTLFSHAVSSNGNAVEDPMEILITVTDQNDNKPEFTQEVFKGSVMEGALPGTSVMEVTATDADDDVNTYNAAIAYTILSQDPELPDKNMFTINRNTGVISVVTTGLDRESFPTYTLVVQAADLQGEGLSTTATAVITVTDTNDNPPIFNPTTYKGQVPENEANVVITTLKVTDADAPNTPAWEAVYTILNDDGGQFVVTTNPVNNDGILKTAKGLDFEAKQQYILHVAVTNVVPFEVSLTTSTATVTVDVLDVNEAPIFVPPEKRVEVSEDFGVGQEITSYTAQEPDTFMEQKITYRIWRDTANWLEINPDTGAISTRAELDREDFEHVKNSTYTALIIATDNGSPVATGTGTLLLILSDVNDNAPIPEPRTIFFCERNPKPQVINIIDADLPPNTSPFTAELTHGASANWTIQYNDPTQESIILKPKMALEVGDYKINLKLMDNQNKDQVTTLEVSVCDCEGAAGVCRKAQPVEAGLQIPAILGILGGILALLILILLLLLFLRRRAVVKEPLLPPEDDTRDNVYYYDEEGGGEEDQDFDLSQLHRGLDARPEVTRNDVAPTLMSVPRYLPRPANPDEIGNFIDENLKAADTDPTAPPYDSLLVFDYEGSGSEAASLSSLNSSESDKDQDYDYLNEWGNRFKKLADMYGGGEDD

TCF4-CTNNB1 complex [4] = target: T2, TCF4-CTNNB1 complex (Homo sapiens, UniProt P15884+P35222); test: Inhibition of beta-Catenin (301 to 670 residues)/TCF4 protein-protein interaction in human HCT-116 cells incubated for 20 hrs by TOPFLASH luciferase reporter assay; assay type: cell-based
T2 sequence (P35222 whole entry): T1 sequence (P35222 whole entry)
T2 sequence (P15884 whole entry): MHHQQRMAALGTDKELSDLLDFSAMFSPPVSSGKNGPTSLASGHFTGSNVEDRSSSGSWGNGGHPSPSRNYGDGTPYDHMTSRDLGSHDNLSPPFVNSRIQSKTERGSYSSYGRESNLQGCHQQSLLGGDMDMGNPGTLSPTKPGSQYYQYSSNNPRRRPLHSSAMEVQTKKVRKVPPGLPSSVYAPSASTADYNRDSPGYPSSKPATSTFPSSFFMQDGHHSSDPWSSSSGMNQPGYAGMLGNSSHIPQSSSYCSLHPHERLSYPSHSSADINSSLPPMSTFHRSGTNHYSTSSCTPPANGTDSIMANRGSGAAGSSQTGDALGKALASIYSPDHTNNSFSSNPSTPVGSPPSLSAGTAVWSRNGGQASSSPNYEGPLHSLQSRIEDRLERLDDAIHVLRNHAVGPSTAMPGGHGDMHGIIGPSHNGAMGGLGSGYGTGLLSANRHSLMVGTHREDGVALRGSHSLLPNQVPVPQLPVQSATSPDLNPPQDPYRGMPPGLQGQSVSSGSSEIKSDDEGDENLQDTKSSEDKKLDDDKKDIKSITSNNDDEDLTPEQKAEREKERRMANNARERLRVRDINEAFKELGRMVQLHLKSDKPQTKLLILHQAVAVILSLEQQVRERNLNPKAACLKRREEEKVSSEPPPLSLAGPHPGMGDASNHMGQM

SW480 [5] = test: Antiproliferative activity against human SW480 cells assessed as inhibition of cell growth by MTS assay; assay type: functional, cell-based
[6] = Inhibition of human beta-Catenin (138 to 686 residues)/C-terminal fluorescein-labeled human APC (1477 to 1519 residues) protein-protein interaction assessed as inhibition constant incubated for 30 mins by fluorescence polarization assay
TCF4-CTNNB1 complex [7] = target: T3, TCF4-CTNNB1 complex (Homo sapiens, UniProt P35222+Q9NQB0); test: Inhibition of beta-Catenin/GST-tagged TCF4 protein-protein interaction in human HCT-116 cells incubated for 24 hrs by immunoprecipitation assay; assay type: cell-based
T3 sequence (P35222 whole entry): T1 sequence (P35222 whole entry)
T3 sequence (P15884 whole entry): T2 sequence (P15884 whole entry)

NCM460 = test: Cytotoxicity against human NCM460 cells incubated for 48 hrs by MTT assay; assay type: toxicity, cell-based; conditions: ncm460, 48 h
SW480 [8] = test: Cytotoxicity against human SW480 cells incubated for 48 hrs by MTT assay; assay type: functional
HCT-116 [9] = test: Cytotoxicity against human HCT-116 cells incubated for 48 hrs by MTT assay; assay type: functional
HCT-116 [10] = test: Antiproliferative activity against human HCT-116 cells assessed as inhibition of cell growth by MTS assay; assay type: functional, cell-based
HT-29 = test: Antiproliferative activity against human HT-29 cells assessed as inhibition of cell growth by MTS assay; assay type: functional, cell-based

O=c1ccc2cc(O)c(O)cc2o1 [ESCULETIN]
Activity (HCT-116 [1]): 44%
Activity (HCT-116 [2]): 64%

O=C(Nc1ccc(O[C@H]2CCNC2)c(-c2ccc(F)cc2)c1)c1ccc(O[C@H]2CCNC2)c(-c2ccc(F)c(F)c2)c1
Ki [3]: 260 µM

COC(=O)c1cccc(NS(=O)(=O)c2ccc(C)cc2)c1
IC50 (TCF4-CTNNB1 complex [4]): 0.583 µM

COC(=O)[C@H](CCC(=O)O)NC(=O)[C@H](CC(=O)O)NC(=O)[C@H](Cc1ccc2ccccc2c1)NC(=O)Cc1cc2cc(Cl)ccc2[nH]1
IC50 (SW480 [5]): 232 µM
Ki [6]: 86.6 µM

COc1c(CC(C)OC(=O)Oc2ccc(O)cc2)c2c3c(CC(C)OC(=O)c4ccccc4)c(OC)c(=O)c4c(O)cc(OC)c(c5c(OC)cc(O)c(c1=O)c52)c43 (stereo not drawn)
IC50 (TCF4-CTNNB1 complex [7]): 10 µM

C=C1C(=O)C23[C@H](O)C[C@@H]4C(C)(C)[C@@H](OC(C)=O)CC[C@@]4(C)[C@@H]2[C@@H]2O[C@@H]2C1[C@H]3O (stereo partly drawn)
Activity (NCM460): 10%
Activity (SW480 [8]): >95%
Activity (HCT-116 [9]): >95%

CCOC(=O)CC[C@H](NC(=O)[C@H](CC(=O)OCC)NC(=O)[C@H](Cc1ccc2ccccc2c1)NC(=O)Cc1cc2cc(Cl)ccc2[nH]1)C(=O)OC
IC50 (SW480 [5]): 28.7 µM
IC50 (HCT-116 [10]): 10 µM
IC50 (HT-29): 10 µM
